According to patent US8563746B2, “Cyclic benzimidazole derivatives useful as anti-diabetic agents” (Merck Sharp & Dohme Corp, priority 2008, dated 2013):
Where two headings read alike, the source gives them in different places.

Target: recombinant human AMPK complex 1 (containing α1β1γ1) (Homo sapiens, UniProt Q13131+Q9Y478)
Test: In vitro AMPK activation assay ([…])
Assay type: biochemical
Settings: for Emax: basal activity subtracted, expressed as % maximum AMP activation
Protocol: The recombinant human AMPK complex 1 (containing α1β1γ1) was obtained from baculovirus expression system. Recombinant viruses were generated by cotransfection of AMPK/pBacPak9 clones with Baculogold baculovirus DNA (Pharmingen) in spodoptera frugiperda 21 cells according to the manufacturer's instructions. Each round of virus amplification was performed for 5 days in Grace's medium containing 10% serum. Virus that had been subjected to three rounds of amplification was used for all protein production procedures. To express the AMPK complex, sf21 cells were adapted to serum free medium (SF900 II, Invitrogen) by sequential dilution from serum containing stocks into SF900II medium and maintained in shaker flasks at 90 rpm at 27° C. The recombinant AMPK enzyme complex was produced by triple infection, one recombinant virus for each of the subunits, in sf21 cells under serum free conditions. Cells were infected in log phase, 1×10^6 cells/ml, at a multiplicity of infection of ˜5. Cells were harvested by centrifugation at 10,000×g for 15 minutes after 72 hours of infection with viruses. The insect cell pellet from 2 liters of culture was resuspended in 50 ml lysis buffer (20 mM Tris-HCl, 50 mM NaCl, 50 mM NaF, 30 mM Na PPi, 0.25 M sucrose, 10 mM ZnCl2, 2 mM DTT, 0.4 mg/ml digitonin) and subjected to two cycles of freeze-thaw lysis in a dry-ice ethanol bath. Insoluble material was removed by centrifugation at 10,000×g and the supernatant was fractionated with use of polyethylene glycol (PEG). The protein fraction precipitating between 2.5 and 6% PEG was used for further purification using a Blue-Sepharose step (Zhou et al, J. Clin. Invest. 108, 1167-1174, 2001).
The total in vitro AMPK activation assay volume is 50 μl in a 96-well plate. The reaction mixture contained 100 μM ATP (0.5 μCi ^33P-ATP per reaction), and 50 μM SAMS ([…]) in a buffer (20 mM HEPES, pH 7.0, 5 mM MgCl2, 0.01% Brij35). The reaction was initiated with addition of the enzyme. After 30-minute incubation at 30° C., the reaction was stopped by addition of 80 μl 1% H3PO4. Aliquots (100 μl) were transferred to 96-well MultiScreen plates (MAPHNOB50; Millipore Corp., Bedford, Mass., USA). The plate was washed three times with 1% H3PO4 followed by detection in a Top-count. The counts per minute from the basal activity (the reaction without activator) was subtracted from each well and the data were expressed as % maximum AMP activation followed by EC50 calculation.

[1] = recombinant human AMPK complex 1 (α1β1γ1)
[2] = recombinant human AMPK complex 1 (α1β1γ1), read-out: EC50

Sequence of recombinant human AMPK complex 1 (containing α1β1γ1) (Q13131 whole entry): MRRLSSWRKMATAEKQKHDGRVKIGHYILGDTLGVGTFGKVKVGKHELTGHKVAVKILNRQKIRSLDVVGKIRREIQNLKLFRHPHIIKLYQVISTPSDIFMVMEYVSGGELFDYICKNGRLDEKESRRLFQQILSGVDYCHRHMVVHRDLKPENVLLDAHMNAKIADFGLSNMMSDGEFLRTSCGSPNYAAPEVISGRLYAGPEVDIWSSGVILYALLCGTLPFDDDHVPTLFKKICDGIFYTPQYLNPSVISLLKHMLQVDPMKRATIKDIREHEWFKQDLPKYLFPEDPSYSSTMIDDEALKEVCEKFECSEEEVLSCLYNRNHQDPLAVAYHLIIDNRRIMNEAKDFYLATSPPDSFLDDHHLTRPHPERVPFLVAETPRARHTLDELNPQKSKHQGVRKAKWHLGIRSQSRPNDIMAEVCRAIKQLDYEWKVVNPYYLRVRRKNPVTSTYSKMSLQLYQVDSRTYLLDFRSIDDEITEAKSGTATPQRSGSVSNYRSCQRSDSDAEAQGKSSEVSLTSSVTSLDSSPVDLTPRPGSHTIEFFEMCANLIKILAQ
Sequence of recombinant human AMPK complex 1 (containing α1β1γ1) (Q9Y478 whole entry): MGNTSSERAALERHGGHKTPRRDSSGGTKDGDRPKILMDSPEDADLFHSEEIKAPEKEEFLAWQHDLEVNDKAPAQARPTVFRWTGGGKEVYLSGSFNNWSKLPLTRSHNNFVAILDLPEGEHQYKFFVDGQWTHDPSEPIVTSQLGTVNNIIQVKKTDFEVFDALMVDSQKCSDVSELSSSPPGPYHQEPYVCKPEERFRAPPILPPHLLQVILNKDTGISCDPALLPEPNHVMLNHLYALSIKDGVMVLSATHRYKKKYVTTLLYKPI
Sequence of recombinant human AMPK complex 1 (containing α1β1γ1) (P54619 whole entry partner): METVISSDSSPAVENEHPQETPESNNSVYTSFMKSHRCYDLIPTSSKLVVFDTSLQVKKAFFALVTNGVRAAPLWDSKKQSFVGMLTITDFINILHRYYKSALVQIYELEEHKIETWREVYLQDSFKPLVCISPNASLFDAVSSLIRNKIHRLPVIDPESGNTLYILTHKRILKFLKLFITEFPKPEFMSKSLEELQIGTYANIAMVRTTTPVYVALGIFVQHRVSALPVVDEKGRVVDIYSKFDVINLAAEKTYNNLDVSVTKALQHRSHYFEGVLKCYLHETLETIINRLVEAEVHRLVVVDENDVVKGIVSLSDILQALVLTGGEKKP

## O=C(O)CSc1nc2cc(C#Cc3ccccc3)c(Cl)cc2[nH]1 [Example 1, (6-Chloro-5-phenylethynyl-1H-benzoimidazol-2-ylsulfanyl)-acetic acid]
  EC50: 259 nM

## O=C(O)CSc1nc2cc(-c3ccc(-c4ccccc4)cc3)c(Cl)cc2[nH]1 [Example 2, (5-Biphenyl-4-yl-6-chloro-1H-benzoimidazol-2-ylsulfanyl)-acetic acid]
  EC50: 90 nM

## O=C(O)CSc1nc2cc(-c3ccc4c(c3)OCO4)c(Cl)cc2[nH]1 [Example 3, (5-1,3-benzo-dioxol-5-yl-6-chloro-1H-benzimidazol-2-ylsulfanyl)-acetic acid]
[1]
  Emax: > 40%

## O=C(O)CSc1nc2cc(-c3cccc(F)c3)c(Cl)cc2[nH]1 [Example 4, [6-chloro-5-(3-fluoro-phenyl)-1H-benzimidazol-2-ylsulfanyl]-acetic acid]
[1]
  Emax: > 40%

## O=C(O)CSc1nc2cc(-c3cc(F)cc(F)c3)c(Cl)cc2[nH]1 [Example 5, [6-chloro-5-(3,5-difluoro-phenyl)-1H-benzimidazol-2-ylsulfanyl]-acetic acid]
[1]
  Emax: > 40%

## O=C(O)CSc1nc2cc(-c3ccc(-c4ccccc4O)cc3)c(Cl)cc2[nH]1 [Example 6, 2-(6-chloro-5-(2′-hydroxybiphenyl-4-yl)-1H-benzo[d]imidazol-2-ylthio)acetic acid]
[2]
  EC50: 13 nM

## CC(=O)NCc1ccc(-c2cc3nc(SCC(=O)O)[nH]c3cc2Cl)cc1 [Example 7, 2-(6-(4-(acetamido-methyl)phenyl)-5-chloro-1H-benzo[d]-imidazol-2-ylthio)-acetic acid]
[1]
  Emax: > 40%

## O=C(O)CSc1nc2cc(-c3ccc(O)cc3)c(Cl)cc2[nH]1 [Example 8, 2-(6-chloro-5-(4-hydroxyphenyl)-1H-benzo[d]imidazol-2-ylthio)acetic acid]
[1]
  Emax: > 40%

## O=C(O)CSc1nc2cc(-c3ccc(CO)cc3)c(Cl)cc2[nH]1 [Example 9, 2-(6-chloro-5-(4-(hydroxymethyl)phenyl)-1H-benzo[d]-imidazol-2-ylthio)-acetic acid]
[1]
  Emax: > 40%

## Nc1ccccc1C#Cc1cc2nc(SCC(=O)O)[nH]c2cc1Cl [Example 10, 2-(5-((2-amino-phenyl)ethynyl)-6-chloro-1H-benzo[d]-imidazol-2-ylthio)-acetic acid]
[1]
  Emax: > 40%

## O=C(O)CSc1nc2cc(-c3ccc4cn[nH]c4c3)c(Cl)cc2[nH]1 [Example 11, 2-(6-chloro-5-(1H-indazol-6-yl)-1H-benzo[d]imidazol-2-ylthio)acetic acid]
[1]
  Emax: > 40%

## COc1ccc(-c2cc3nc(SCC(=O)O)[nH]c3cc2Cl)cn1 [Example 12, 2-(6-chloro-5-(6-methoxypyridin-3-yl)-1H-benzo[d]imidazol-2-ylthio)acetic acid]
[1]
  Emax: > 40%

## O=C(O)CSc1nc2cc(-c3cc4ccccc4o3)c(Cl)cc2[nH]1 [Example 13, 2-(5-(benzofuran-2-yl)-6-chloro-1H-benzo[d]imidazol-2-ylthio)acetic acid]
[1]
  Emax: > 40%

## O=C(O)CSc1nc2cc(-c3csc4ccccc34)c(Cl)cc2[nH]1 [Example 14, 2-(5-(benzo[b]-thiophen-3-yl)-6-chloro-1H-benzo[d]-imidazol-2-ylthio)-acetic acid]
[1]
  Emax: > 40%

## O=C(O)CSc1nc2cc(-c3ccc(-n4cccn4)cc3)c(Cl)cc2[nH]1 [Example 15, 2-(5-(4-(1H-pyrazol-1-yl)phenyl)-6-chloro-1H-benzo[d]imidazol-2-ylthio)acetic acid]
[1]
  Emax: > 40%

## O=C(O)CSc1nc2cc(-c3ccc(-c4ccn[nH]4)cc3)c(Cl)cc2[nH]1 [Example 16, 2-(5-(4-(1H-pyrazol-5-yl)phenyl)-6-chloro-1H-benzo[d]imidazol-2-ylthio)acetic acid]
[1]
  Emax: > 40%

## CC(=O)Nc1cccc(C#Cc2cc3nc(SCC(=O)O)[nH]c3cc2Cl)c1 [Example 17, 2-(5-((3-acetamido-phenyl)ethynyl)-6-chloro-1H-benzo[d]-imidazol-2-ylthio)-acetic acid]
[1]
  Emax: > 40%

## O=C(O)CSc1nc2cc(C#Cc3ccc(CO)cc3)c(Cl)cc2[nH]1 [Example 18, [6-Chloro-5-(4-hydroxymethyl-phenylethynyl)-1H-benzoimidazol-2-ylsulfanyl]-acetic acid]
[2]
  EC50: 248 nM

## CS(=O)(=O)c1ccc(C#Cc2cc3nc(SCC(=O)O)[nH]c3cc2Cl)cc1 [Example 19, [6-chloro-5-(4-methanesulfonyl-phenyl-ethynyl)-1H-benzo-imidazol-2-yl-sulfanyl]-acetic acid]
[1]
  Emax: > 40%

## N#Cc1ccccc1C#Cc1cc2nc(SCC(=O)O)[nH]c2cc1Cl [Example 20, [6-chloro-5-(2-cyano-phenyl-ethynyl)-1H-benzo-imidazol-2-ylsulfanyl]-acetic acid]
[1]
  Emax: > 40%

## O=C(O)CSc1nc2cc(C#CC3CCNCC3)c(Cl)cc2[nH]1 [Example 21, (6-chloro-5-piperidin-4-ylethynyl-1H-benzoimidazol-2-ylsulfanyl)-acetic acid]
[1]
  Emax: > 40%

## O=C(O)CSc1nc2cc(C#Cc3ccc(F)cc3)c(Cl)cc2[nH]1 [Example 22]
[1]
  Emax: > 40%

## O=C(O)CSc1nc2cc(C#Cc3cccc(F)c3)c(Cl)cc2[nH]1 [Example 23]
[1]
  Emax: > 40%

## O=C(O)CSc1nc2cc(C#Cc3ccc(F)cc3F)c(Cl)cc2[nH]1 [Example 24, [6-chloro-5-(2,4-difluoro-phenyl-ethynyl)-1H-benzoimidazol-2-ylsulfanyl]-acetic acid]
[1]
  Emax: > 40%

## O=C(O)CSc1nc2cc(C#Cc3ccncc3)c(Cl)cc2[nH]1 [Example 25, (6-chloro-5-pyridin-4-yl-ethynyl-1H-benzoimidazol-2-ylsulfanyl)-acetic acid]
[1]
  Emax: > 40%

## O=C(O)CSc1nc2cc(C#CCOc3ccccc3)c(Cl)cc2[nH]1 [Example 26, [6-chloro-5-(3-phenoxy-prop-1-ynyl)-1H-benzo-imidazol-2-yl-sulfanyl]-acetic acid]
[1]
  Emax: > 40%

## O=C(O)CSc1nc2cc(C#Cc3ccccc3F)c(Cl)cc2[nH]1 [Example 27]
[1]
  Emax: > 40%

## N#Cc1ccc(C#Cc2cc3nc(SCC(=O)O)[nH]c3cc2Cl)cc1 [Example 28, [6-chloro-5-(4-cyano-phenyl-elhynyl)-1H-benzoimidazol-2-ylsulfanyl]-acetic acid]
[1]
  Emax: > 40%

## O=C(O)CSc1nc2cc(C#Cc3cccc(O)c3)c(Cl)cc2[nH]1 [Example 29, [6-chloro-5-(3-hydroxyphenyl-ethynyl)-1H-benzoimidazol-2-ylsulfanyl]-acetic acid]
[1]
  Emax: > 40%

## Cc1ccccc1C#Cc1cc2nc(SCC(=O)O)[nH]c2cc1Cl [Example 30, (6-chloro-5-o-tolylethynyl-1H-benzo-imidazol-2-ylsulfanyl)-acetic acid]
[1]
  Emax: > 40%

## Cc1cccc(C#Cc2cc3nc(SCC(=O)O)[nH]c3cc2Cl)c1 [Example 31, (6-chloro-5-m-tolylethynyl-1H-benzoimidazol-2-ylsulfanyl)-acetic acid]
[1]
  Emax: > 40%

## COc1cccc(C#Cc2cc3nc(SCC(=O)O)[nH]c3cc2Cl)c1 [Example 32, [6-chloro-5-(3-methoxy-phenyl-ethynyl)-1H-benzoimidazol-2-ylsulfanyl]-acetic acid]
[1]
  Emax: > 40%

## O=C(O)CSc1nc2cc(C#Cc3ccc(Oc4ccccc4)cc3)c(Cl)cc2[nH]1 [Example 33, [6-Chloro-5-(4-phenoxy-phenylethynyl)-1H-benzoimidazol-2-ylsulfanyl]-acetic acid]
[1]
  Emax: > 40%

## O=C(O)CSc1nc2cc(C#Cc3ccc(-c4ccccc4)cc3)c(Cl)cc2[nH]1 [Example 34, (5-biphenyl-4-ylethynyl-6-chloro-1H-benzoimidazol-2-ylsulfanyl)-acetic acid]
[1]
  Emax: > 40%

## O=C(O)CSc1nc2cc(C#CC3CCCC3)c(Cl)cc2[nH]1 [Example 35, (6-chloro-5-cyclo-pentylethynyl-1H-benzo-imidazol-2-yl-sulfanyl)-acetic acid]
[1]
  Emax: > 40%

## CCc1ccc(C#Cc2cc3nc(SCC(=O)O)[nH]c3cc2Cl)cc1 [Example 36, [6-chloro-5-(4-ethyl-phenyl-ethynyl)-1H-benzo-imidazol-2-yl-sulfanyl]-acetic acid]
[1]
  Emax: > 40%

## COc1ccc2cc(C#Cc3cc4nc(SCC(=O)O)[nH]c4cc3Cl)ccc2c1 [Example 37, [6-chloro-5-(6-methoxy-naphthalen-2-yl-ethynyl)-1H-benzo-imidazol-2-yl-sulfanyl]-acetic acid]
[1]
  Emax: > 40%
